Measurements from patent US20260217727A1, “COMPOUNDS DERIVED FROM DIHYDROPIRIDINES, PHARMACEUTICAL COMPOSITIONS COMPRISING SAID COMPOUNDS AND METHOD OF TREATMENT OF MUSCLE DISORDERS COMPRISING ADMINISTRATION OF SAID COMPOSITIONS” (UNIVERSIDAD DE CHILE, priority 2023, published 2026).
Entries after “also recorded” stand apart in the source; their conditions may differ. Blank lines part the entries; values can stand above or below the compound they belong to.

Legend:
[1] = biological target: T1, Cav1.1 channels (dihydropyridine receptors) (Mus musculus, UniProt Q02789); assay: Whole cell voltage-clamp measurement of L-type Ca2+ currents in isolated fdb muscle fibers; format: cell-based; conditions: L-type calcium peak current, mouse skeletal muscle fibers, control = maximum current without drug, read-out: % inhibition of Ca^2+ current
T1 construct: endogenous in cells; host or cells: single skeletal muscle fibers isolated from C57 mouse flexor digitorum brevis (FDB) muscle

aged mice [2] = assay: Incremental treadmill running test (endurance) in aged mice; format: in vivo, mouse
Protocol: The standardization of this test that evaluates resistance and strength was carried out in the treadmill equipment for rodents. The test consists of 5 sessions where the animals were acclimatized for 5 minutes at the equipment's minimum speed of 0.3 Km/h and the number of shots of compressed air that keep the animal trotting is counted. Once the acclimatization process was finished, the animals were evaluated in an incremental test consisting of 2-minute ramps at the minimum speed and then gradually increasing 0.1 Km/h after 2 minutes until the animal could no longer run. This maximum effort test is only performed once per session and is considered finished when the animal reaches the bottom of the ramp and accumulates 10 shots of compressed air in a period of 10 seconds.
The muscle function of aged mice (between 19 and 21 months of age) was assessed with an incremental strength test (weightlifting) and with an incremental treadmill running test. The measurement was made after 12 days of treatment with MP-2 (1 mg/Kg/day) administered via intraperitoneal injection. As a control, vehicle-injected mice were used in the same manner as drug-injected mice. Recovery of muscle function can be observed after treatment. Data were analyzed as the change in test performance at the end of treatment relative to performance at the start of treatment for each mouse. […]

fdb muscle fibers [3] = assay: ATP release from fdb muscle fibers after 20 Hz electrical stimulation (luciferin/luciferase); format: cell-based, mouse; conditions: pre-incubation 10 μM for 30 min
Protocol: Isolation of skeletal muscle fibers was performed from C57BL/J6 mice between 8 and 10 weeks of age. Isolated fibers were obtained from the flexor digitorum brevis (FoB) and Gastrocnemius muscle by enzymatic digestion for 90 min with 400 U/mL type II collagenase (Worthington Biochemicals Corp., Lakewood, NJ, USA) and mechanical dissociation with Pasteur pipettes, as previously described (Casas et.al, 2010). The isolated fibers were seeded in Petri dishes coated with a layer of Matrigel in Dulbecco's modified Eagle's culture medium (DMEM), supplemented with 10% horse serum, 50 U/mL penicillin and […] streptomycin. Cell cultures were used approximately 20 h after the fiber seeding process. All protocols were previously approved by the Bioethics Committee of the Faculty of Medicine of the University of Chile. […]
Extracellular ATP concentrations were determined using the CellTiter-Glo® Luminescent Cell Viability Assay Kit (Promega). […] After incubating for 10 min in the dark at room temperature, the samples were quantified in an FB12 (Berthold) luminometer. […] RNA normalization was preferred over total protein normalization since adult fiber cultures were seeded on a matrigel sheet, which has a large amount of protein and could alter the quantification process. […]

aged mice [4] = assay: Incremental strength test (weightlifting) in aged mice; format: in vivo, mouse
Protocol: The muscle function of aged mice (between 19 and 21 months of age) was assessed with an incremental strength test (weightlifting) and with an incremental treadmill running test. The measurement was made after 12 days of treatment with MP-2 (1 mg/Kg/day) administered via intraperitoneal injection. As a control, vehicle-injected mice were used in the same manner as drug-injected mice. Recovery of muscle function can be observed after treatment. Data were analyzed as the change in test performance at the end of treatment relative to performance at the start of treatment for each mouse. It is observed that the treatment improves the strength parameters more than 4 times with respect to the control. […] The mean±SEM is plotted. N=5 for each group, *: p<0.05
Two functional tests were performed in control (saline-injected) and MP-2-treated (daily intraperitoneal injections of 1 mg/Kg MP-2 for 12 days) mice.

[5] = test system: muscle fibers of normal mice; assay: qPCR of proinflammatory genes in muscle fibers exposed to extracellular ATP; format: cell-based, mouse; conditions: 300 μM extracellular ATP for 2 h
Protocol: Total RNA from the isolated muscle fiber culture was extracted using TRIzol (Invitrogen) according to the manufacturer's protocol. The cDNA was obtained by reverse transcription from 1 μg of total RNA, using the enzyme SuperScript II (Invitrogen) according to the manufacturer's protocol. Real-time qPCR assays were performed using a thermocycler (Stratagene Mx300P, Agilent) according to the following protocol. The reaction mix will be given by 1 μL 10×dNTPs, 0.5 μL sense primer (10 pmol/μL), 0.5 μL antisense primer (10 pmol/μL), 4 μL EVA Green (Invitrogen) and 1 μL cDNA. The final volume of the mix was brought to 20 μL by adding nuclease-free water. All primers have an optimal amplification efficiency (between 90-110%). In any case, the analysis of the data was carried out considering a correction of the amplification cycle of each gene according to the amplification efficiency of the primers. The thermocycling conditions were the following: 1 cycle of 12 min at 95° C., followed by 40 cycles of 15 at 95° C. […] The Ct value was determined by the MXPro software when the fluorescence level is 25% higher than the basal fluorescence. […]
Increases in proinflammatory markers have been reported in the muscles of older adults, as part of the process of losing muscle mass. Therefore, the effect of chronic exposure to high levels of extracellular ATP on mRNA levels of proinflammatory genes was evaluated. […]

fdb muscle fibers [6] = conditions: earlier results of the inventors; cited from earlier work
[7] = biological target: T1, Cav1.1 channels (dihydropyridine receptors); conditions: earlier results, stated in words; cited from earlier work
[8] = aged mice 19-21 months, 1 mg/Kg/day i.p. for 12 days, change end vs start of treatment

T1 sequence (Q02789 whole entry): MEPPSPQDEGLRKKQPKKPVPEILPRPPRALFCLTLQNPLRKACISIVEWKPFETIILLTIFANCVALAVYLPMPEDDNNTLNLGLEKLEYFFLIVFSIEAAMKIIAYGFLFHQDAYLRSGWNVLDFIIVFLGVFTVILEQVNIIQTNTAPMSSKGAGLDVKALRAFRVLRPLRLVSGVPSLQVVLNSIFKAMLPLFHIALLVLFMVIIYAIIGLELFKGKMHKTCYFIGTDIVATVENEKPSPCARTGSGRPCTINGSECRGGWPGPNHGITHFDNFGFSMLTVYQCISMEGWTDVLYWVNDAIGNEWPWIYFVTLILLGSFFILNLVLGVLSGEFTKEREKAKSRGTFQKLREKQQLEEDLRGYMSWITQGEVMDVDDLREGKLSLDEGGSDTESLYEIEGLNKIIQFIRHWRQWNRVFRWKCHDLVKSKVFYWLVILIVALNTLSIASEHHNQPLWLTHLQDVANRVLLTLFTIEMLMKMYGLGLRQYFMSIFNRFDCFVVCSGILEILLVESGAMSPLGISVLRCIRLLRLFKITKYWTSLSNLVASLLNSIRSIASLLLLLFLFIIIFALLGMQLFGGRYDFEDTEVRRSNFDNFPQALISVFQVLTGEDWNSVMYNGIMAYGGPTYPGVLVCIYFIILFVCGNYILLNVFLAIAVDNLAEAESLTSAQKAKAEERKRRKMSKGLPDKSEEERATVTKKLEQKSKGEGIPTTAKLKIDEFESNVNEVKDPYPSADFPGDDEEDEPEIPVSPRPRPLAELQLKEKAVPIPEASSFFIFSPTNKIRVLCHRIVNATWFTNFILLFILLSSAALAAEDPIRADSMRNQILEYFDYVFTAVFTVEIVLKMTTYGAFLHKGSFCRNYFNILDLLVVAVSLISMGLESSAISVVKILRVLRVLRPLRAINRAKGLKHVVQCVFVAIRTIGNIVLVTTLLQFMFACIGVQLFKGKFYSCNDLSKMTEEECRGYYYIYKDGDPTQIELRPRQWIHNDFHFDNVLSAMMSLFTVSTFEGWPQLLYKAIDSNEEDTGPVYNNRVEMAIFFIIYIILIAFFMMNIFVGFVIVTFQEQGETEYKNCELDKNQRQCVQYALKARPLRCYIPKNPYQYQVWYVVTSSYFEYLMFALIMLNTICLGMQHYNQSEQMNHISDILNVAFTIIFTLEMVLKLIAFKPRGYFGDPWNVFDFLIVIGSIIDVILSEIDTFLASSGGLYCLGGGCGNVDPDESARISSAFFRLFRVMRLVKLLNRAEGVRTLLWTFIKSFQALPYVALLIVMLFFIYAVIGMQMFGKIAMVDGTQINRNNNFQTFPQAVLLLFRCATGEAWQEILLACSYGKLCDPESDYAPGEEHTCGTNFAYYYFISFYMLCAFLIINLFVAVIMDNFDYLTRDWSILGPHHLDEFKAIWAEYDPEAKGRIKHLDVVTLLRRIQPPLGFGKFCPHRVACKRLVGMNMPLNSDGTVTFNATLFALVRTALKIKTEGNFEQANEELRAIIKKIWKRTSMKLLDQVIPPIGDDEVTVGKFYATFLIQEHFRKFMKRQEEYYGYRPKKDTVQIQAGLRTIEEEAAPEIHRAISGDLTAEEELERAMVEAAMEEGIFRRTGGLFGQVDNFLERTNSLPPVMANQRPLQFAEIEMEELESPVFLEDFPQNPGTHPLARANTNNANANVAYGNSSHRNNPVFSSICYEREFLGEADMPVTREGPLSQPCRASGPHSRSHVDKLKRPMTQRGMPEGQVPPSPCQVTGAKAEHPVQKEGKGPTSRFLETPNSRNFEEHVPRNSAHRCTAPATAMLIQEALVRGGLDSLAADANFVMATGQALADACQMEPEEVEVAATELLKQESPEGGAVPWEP
T1 sequence (Q8R3Z5 whole entry partner): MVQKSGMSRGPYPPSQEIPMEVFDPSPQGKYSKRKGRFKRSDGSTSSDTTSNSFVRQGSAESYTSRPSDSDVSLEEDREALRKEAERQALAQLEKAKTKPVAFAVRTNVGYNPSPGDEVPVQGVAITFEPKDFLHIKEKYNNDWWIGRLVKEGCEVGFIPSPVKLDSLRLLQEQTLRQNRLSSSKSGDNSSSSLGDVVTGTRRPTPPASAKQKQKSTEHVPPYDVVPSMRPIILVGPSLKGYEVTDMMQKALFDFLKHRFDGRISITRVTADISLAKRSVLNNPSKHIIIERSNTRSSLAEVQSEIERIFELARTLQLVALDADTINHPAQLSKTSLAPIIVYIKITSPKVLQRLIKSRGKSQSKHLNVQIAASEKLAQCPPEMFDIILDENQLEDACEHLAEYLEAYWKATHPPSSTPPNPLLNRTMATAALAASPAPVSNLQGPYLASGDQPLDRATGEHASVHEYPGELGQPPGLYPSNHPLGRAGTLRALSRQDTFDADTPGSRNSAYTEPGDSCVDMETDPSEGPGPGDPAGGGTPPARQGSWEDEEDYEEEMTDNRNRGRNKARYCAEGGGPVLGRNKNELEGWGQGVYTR
T1 sequence (O08532 25-1103 partner): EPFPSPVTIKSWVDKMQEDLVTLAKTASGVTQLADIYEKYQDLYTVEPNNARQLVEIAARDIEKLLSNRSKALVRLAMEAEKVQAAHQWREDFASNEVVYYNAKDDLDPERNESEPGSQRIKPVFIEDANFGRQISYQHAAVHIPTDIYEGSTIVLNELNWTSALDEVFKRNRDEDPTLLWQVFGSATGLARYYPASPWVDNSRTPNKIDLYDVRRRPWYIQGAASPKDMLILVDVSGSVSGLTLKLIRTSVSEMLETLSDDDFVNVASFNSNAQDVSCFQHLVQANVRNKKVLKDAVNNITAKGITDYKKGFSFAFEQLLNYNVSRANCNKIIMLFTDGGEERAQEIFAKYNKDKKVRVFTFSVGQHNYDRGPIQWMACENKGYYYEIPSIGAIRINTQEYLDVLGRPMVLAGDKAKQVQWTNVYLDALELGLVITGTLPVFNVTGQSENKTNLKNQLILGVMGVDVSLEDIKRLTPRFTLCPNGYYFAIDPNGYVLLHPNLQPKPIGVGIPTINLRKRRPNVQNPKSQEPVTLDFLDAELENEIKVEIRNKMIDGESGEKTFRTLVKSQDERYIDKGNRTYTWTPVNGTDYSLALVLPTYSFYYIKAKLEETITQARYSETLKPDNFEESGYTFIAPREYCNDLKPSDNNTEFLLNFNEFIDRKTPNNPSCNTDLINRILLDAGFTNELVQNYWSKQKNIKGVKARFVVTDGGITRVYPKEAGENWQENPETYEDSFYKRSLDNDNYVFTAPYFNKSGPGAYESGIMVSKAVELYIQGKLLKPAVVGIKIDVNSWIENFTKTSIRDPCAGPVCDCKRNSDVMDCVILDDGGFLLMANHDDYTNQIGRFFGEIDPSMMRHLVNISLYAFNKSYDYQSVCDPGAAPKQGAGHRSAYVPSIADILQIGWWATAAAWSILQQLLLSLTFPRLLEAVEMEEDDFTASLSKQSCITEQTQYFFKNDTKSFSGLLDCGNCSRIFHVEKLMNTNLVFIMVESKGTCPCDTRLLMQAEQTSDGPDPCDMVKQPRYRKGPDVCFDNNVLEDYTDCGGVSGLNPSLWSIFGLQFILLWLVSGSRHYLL
T1 sequence (O70578 whole entry partner): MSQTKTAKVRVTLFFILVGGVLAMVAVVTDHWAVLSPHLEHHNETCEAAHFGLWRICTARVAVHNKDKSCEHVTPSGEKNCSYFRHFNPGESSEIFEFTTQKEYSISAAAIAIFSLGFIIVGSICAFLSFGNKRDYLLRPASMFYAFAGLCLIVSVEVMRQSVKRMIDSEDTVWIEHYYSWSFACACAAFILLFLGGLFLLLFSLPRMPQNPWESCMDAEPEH

inhibition at 10 µM [1]: 47.6 ± 2%
Compound: CCOC(=O)C1=C(C)NC(C)=C(C(=O)OC)C1c1cccc([N+](=O)[O-])c1 (stereo not drawn) [Nitrendipine]

inhibition of ATP outflow induced by 20 Hz electrical stimulation (fdb muscle fibers [3]; listed as MP2): inhibits in a similar way as nifedipine
inhibition at 10 µM [1]: 50 ± 8%
Compound: COC(=O)C1=C(C)NC2=C(C(=O)OC2)C1c1ccccc1[N+](=O)[O-] (stereo not drawn) [MP-2, methyl 2-methyl-4-(2-nitrophenyl)-5-oxo-1,4,5,7-tetrahydrofuro [3,4-b]pyridine-3-carboxylate]
increase in Endurance test (incremental treadmill test) over the control (aged mice [2]; [8]): ~5 times
improvement in treadmill test (measure of resistance) (aged mice [2]; daily i.p. 1 mg/Kg for 12 days): 25%
inhibition of ATP outflow induced by 20 Hz electrical stimulation (fdb muscle fibers [3]): inhibits the outflow of ATP; also recorded: indistinguishable from that of nifedipine
improvement of strength parameters with respect to the control (aged mice [4]; [8]): more than 4 times
muscle strength in aged mice (aged mice [4]; aged mice (age>18 months)): substantially improves their muscle strength
improvement in weight test (measure of strength) (aged mice [4]; daily i.p. 1 mg/Kg for 12 days): 64.4%

inhibition at 10 µM [1]: 14.3 ± 7%
Compound: COC(=O)C1=C(C)NC(C)=C(C(=O)OCC(C)C)C1c1ccccc1[N+](=O)[O-] (stereo not drawn) [Nisoldipine]

inhibition at 10 µM [1]: 48 ± 10%
Compound: COCCOC(=O)C1=C(C)NC(C)=C(C(=O)OC(C)C)C1c1cccc([N+](=O)[O-])c1 (stereo not drawn) [Nimodipine]

Compound: Nc1ncnc2c1ncn2[C@@H]1O[C@H](COP(=O)(O)OP(=O)(O)OP(=O)(O)O)[C@@H](O)[C@H]1O [ATP]
mRNA levels of proinflammatory genes (TNF-α and IL-6) [5]: increase

Compound: COC(=O)C1=C(C)NC(C)=C([N+](=O)[O-])[C@H]1c1ccccc1C(F)(F)F [(S)-(−)-BayK-8644]
ATP outflow after electrical stimulation of the muscle fiber (earlier work) (fdb muscle fibers [6]): also inhibits ATP release
effect on Ca^2+ current through the DHPR channel (earlier work) [7]: increases Ca^2+ current

inhibition at 10 µM [1]: 32.6 ± 8%
Compound: COC(=O)C1=C(C)NC(C)=C(C(=O)OCCN(C)Cc2ccccc2)C1c1cccc([N+](=O)[O-])c1 (stereo not drawn) [Nicardipine]
